The source of these data is patent publication US7569547B2, “Inhibiting furin with polybasic peptides” (Board of Supervisors of Louisiana State University and …, priority 2001, dated 2009).

Residues, ends and D or L forms follow the SMILES beside them. *: point of attachment. CH2Cl = ClC* A value given as a limit tells only on which side of the number the result lay.

One experiment addresses T1, PC2 (Mus musculus, UniProt P21661).
T1 sequence (P21661 109-637): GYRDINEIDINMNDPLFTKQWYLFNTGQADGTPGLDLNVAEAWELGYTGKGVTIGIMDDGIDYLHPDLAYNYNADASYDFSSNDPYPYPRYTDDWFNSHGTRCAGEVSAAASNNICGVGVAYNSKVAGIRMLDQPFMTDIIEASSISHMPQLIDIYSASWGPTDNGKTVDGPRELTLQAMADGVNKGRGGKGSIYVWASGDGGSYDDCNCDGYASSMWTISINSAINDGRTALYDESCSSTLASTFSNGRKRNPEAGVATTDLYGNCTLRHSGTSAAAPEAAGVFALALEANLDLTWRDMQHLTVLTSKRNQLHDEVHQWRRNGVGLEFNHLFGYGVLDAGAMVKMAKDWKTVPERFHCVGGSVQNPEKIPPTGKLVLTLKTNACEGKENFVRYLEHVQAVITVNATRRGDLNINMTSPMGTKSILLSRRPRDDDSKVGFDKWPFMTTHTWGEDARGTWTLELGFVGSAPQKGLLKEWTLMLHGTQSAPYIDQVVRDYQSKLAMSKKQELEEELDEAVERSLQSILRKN
Kind of experiment: PC2 enzyme assay, hydrolysis of pERTKR-MCA at pH 5.0. The class given is biochemical. On the set-up: made in house. Here is the method: (§1) The proprotein convertases PC1 and PC2 were prepared by ion exchange chromatography as described in G. Frenette et al., Biochim. Biophys. Acta., vol. 1334, pp. 109-115 (1997).
(§2) Enzyme Assays and Hexapeptide Library Screening. Enzyme assays for PC1 and PC2 were performed at pH 5.0 using pERTKR-MCA (Peptides International Inc., Louisville, Ky.) as described in E. Apletalina et al., J. Biol. Chem., vol. 273, pp. 26589-26595 (1998). The assay for furin was performed using the same substrate at pH 7.0 in 100 mM HEPES, 5 mM CaCl2, 0.1% Brij 35. All assays were performed at 37° C. in a 96 well fluorometer (Labsystems) at an excitation wavelength of 380 nm with emission monitored at a wavelength of 460 nm. The total volume was 50 μL. Unless otherwise stated, the final substrate concentration for all assays was 200 μM. When used in a particular experiment, the inhibitory peptides were pre-incubated with enzyme for 30 min at room temperature prior to addition of substrate. All assays were performed in duplicate or triplicate.

Experiment [1] deals with T2, PC1 (Homo sapiens, UniProt P29120).
T2 sequence (P29120 111-753): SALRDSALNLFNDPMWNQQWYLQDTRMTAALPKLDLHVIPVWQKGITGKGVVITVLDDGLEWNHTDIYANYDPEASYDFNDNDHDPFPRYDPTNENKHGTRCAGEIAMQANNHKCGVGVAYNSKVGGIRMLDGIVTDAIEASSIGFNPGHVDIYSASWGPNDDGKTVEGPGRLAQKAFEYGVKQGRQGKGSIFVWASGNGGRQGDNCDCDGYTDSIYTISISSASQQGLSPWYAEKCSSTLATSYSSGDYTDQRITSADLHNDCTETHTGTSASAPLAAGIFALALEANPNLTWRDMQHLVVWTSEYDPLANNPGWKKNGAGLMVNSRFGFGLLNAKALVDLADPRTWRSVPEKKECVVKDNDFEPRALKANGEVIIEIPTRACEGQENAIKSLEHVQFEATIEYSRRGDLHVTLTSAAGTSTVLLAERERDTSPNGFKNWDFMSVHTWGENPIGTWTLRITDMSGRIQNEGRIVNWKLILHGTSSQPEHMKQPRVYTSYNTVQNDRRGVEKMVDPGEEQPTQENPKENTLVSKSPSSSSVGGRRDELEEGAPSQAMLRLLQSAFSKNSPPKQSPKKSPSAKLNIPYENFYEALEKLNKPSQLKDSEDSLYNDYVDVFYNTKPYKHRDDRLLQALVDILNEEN
The conditions noted are these: literature; cited from earlier work.

Another experiment concerns the target T3, recombinant mouse furin (Mus musculus, UniProt P23188).
T3 construct: truncated N-terminally to the transmembrane domain at His^711 using PCR; myc (C, cleaved yes); hexa-His (C, cleaved yes); made in house; host or cells: DG44 CHO cells, conditioned medium
Kind of experiment: Furin enzyme assay, hydrolysis of pERTKR-MCA at pH 7.0. The class given is biochemical.
From the text: Recombinant convertase preparation. The mouse furin clone was a kind gift from K. Nakayama (Fukuoka University School of Medicine, Fukuoka, Japan). The mouse furin cDNA was truncated N-terminally to the transmembrane domain at His^711 using PCR. This PCR product was then subcloned into pcDNA3.1 (−) myc-His (Invitrogen) at the Nhe1 and Xba1 restriction sites. Dihydrofolate-reductase-negative DG44 Chinese Hamster Ovary (CHO) cells (L. Chasin, Columbia University, New York, N.Y.) were transfected using Lipofectin (Life Technologies), and colonies were selected at 37° C. in 5% CO2 in α-MEM (lacking nucleosides) containing 10% well-dialyzed fetal bovine serum (Life Technologies). Conditioned media from colonies were screened using an enzyme assay (see below), and a high-expressing clone was selected. Overexpression of furin was achieved by increasing the methotrexate concentration from 5 nM to 50 μM in five- to ten-fold steps as described in I. Lindberg et al., Methods Neurosci., vol. 23, pp. 94-108 (1995). The amplified lines were tested for increased furin expression by enzyme assay. Once the 50 μM methotrexate level had been reached, cells were split at ratios of 1:6 twice a week. 100 mL of conditioned media (OptiMEM, Life Technologies) containing 100 μg/mL aprotinin (Miles Laboratories, Kankakee, Ill.) was collected from confluent roller bottles every 24 h. The medium was then centrifuged at low speed to remove cells, and the supernatant was stored at −80° C. until use.
Purification of furin: Conditioned medium was thawed, pooled, and diluted 1:3.5 with buffer A (20 mM HEPES, 0.1% Brij 35, 5 mM CaCl2, pH 7.4), and pumped at 40 mL/min through a Sartorius D100 anion exchange membrane. The membrane was washed with 40 mL of buffer A, followed by 40 mL of buffer A containing 50 mM NaCl, and finally by 40 mL of buffer A containing 200 mM NaCl. The fraction eluting with 200 mM NaCl was diluted 1:4 with buffer A and applied to a 1 mL Pharmacia Mono Q HR5/5 anion exchange column at a flow rate of 1 mL/min. Following a 10 mL wash with buffer A, furin was eluted by a linear increase of 0 to 500 mM NaCl in buffer A over 30 mL; and 2 mL fractions were collected. Fractions containing peak activity were pooled, and 200 μL aliquots were subjected to gel permeation chromatography using a Pharmacia Superose 12 column at a flow rate of 0.5 mL/min of buffer A containing 200 mM NaCl. Fractions were assayed for activity as described below; protein content was determined using the Bradford method. All purification steps were performed at 4° C.
as §2

Experiment [2] has as its target T4, PC1 (Mus musculus, UniProt P63239).
T4 construct: made in house
T4 sequence (P63239 111-753): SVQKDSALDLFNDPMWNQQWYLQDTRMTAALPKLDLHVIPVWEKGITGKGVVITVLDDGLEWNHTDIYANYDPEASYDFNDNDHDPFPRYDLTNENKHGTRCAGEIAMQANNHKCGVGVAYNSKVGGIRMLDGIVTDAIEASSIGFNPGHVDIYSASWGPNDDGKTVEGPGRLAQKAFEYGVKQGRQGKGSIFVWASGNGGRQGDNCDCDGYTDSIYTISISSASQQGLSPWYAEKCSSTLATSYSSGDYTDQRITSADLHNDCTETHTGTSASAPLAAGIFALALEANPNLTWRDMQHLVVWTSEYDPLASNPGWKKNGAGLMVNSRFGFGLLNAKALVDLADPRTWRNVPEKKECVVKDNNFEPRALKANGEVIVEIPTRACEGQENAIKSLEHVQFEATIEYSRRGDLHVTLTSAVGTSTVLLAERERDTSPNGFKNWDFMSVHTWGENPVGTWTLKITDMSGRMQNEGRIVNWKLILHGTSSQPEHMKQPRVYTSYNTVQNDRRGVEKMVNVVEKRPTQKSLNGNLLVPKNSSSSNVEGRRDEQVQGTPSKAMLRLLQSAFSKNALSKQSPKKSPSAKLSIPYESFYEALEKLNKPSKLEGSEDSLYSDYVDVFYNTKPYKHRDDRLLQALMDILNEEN
In words: biochemical. The format is biochemical. On the procedure:
as §1, §2

The next experiment deals with T5, PACE4 (Rattus norvegicus, UniProt Q63415).
T5 construct: made in house; host or cells: stably transfected hEK-293 cells (gift of R. E. Mains), conditioned medium
T5 sequence (Q63415 133-937): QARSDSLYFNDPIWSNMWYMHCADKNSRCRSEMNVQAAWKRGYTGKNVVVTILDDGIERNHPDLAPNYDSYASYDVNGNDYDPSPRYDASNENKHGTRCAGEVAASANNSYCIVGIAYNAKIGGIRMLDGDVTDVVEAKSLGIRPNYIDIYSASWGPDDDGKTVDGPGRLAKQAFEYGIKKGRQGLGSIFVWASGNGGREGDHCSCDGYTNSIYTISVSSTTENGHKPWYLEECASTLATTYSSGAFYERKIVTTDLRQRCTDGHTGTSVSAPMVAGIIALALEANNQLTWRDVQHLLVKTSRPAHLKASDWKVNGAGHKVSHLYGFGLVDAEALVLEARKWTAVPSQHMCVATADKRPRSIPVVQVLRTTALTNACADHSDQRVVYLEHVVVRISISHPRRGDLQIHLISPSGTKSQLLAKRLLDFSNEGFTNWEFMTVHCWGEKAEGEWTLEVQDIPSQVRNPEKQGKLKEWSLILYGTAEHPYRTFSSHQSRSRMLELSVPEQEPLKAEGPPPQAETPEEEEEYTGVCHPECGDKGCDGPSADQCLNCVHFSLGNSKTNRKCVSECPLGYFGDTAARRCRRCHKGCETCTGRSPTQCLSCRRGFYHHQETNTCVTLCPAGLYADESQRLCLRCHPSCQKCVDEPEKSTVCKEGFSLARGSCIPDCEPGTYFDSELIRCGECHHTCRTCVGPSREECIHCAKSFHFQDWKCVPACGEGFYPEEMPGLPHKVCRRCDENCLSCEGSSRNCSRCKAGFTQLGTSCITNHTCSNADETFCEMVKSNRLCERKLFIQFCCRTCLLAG
Kind of experiment: PACE4 enzyme assay, hydrolysis of pERTKR-MCA. The class given is biochemical. Here is the method:
The proprotein convertase PACE4 was partially purified from an overnight-conditioned medium of stably transfected hEK-293 human embryonic kidney cells (a generous gift of R. E. Mains, Johns Hopkins University School of Medicine, Baltimore, Md.). Briefly, 100 mL of conditioned medium (OptiMEM containing 100 μg/mL aprotinin) was loaded onto an Econo-Pac Q (Bio-Rad) column at 4 mL/min, washed with 10 mL of buffer A, and then eluted with a linear gradient of buffer A containing 500 mM NaCl over 50 mL. The active fractions were then diluted 1:4 with buffer A prior to loading onto a Mono Q column (Pharmacia) at 1 mL/min. The PACE4 was eluted with a linear gradient of buffer A containing 500 mM NaCl over 10 mL. The resulting active fractions were then pooled and stored at −80° C. until use.
as §2

The next experiment has as its target furin (Homo sapiens, UniProt P09958). The conditions noted are these: literature, cited from earlier work.

Chain of furin (P09958 108-794): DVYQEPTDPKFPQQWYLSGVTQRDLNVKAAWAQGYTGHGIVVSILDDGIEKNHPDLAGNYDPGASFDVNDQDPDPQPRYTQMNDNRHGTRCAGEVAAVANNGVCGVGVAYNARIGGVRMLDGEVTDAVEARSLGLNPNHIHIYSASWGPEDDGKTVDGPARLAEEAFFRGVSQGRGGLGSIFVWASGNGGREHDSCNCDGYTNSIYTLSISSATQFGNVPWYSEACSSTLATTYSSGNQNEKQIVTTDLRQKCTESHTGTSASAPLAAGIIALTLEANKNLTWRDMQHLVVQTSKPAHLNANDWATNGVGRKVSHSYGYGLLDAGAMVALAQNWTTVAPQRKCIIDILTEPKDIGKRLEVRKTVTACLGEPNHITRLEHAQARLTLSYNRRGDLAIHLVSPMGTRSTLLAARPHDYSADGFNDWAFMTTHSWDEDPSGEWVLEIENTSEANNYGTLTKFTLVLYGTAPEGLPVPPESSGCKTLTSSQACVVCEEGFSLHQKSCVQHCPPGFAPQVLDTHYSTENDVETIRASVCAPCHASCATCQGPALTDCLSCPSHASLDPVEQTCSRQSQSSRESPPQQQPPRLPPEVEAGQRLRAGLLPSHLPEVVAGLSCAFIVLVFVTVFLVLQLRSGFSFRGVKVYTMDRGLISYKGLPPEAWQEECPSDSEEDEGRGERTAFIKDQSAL
T3 sequence (P23188 108-714 limits assumed): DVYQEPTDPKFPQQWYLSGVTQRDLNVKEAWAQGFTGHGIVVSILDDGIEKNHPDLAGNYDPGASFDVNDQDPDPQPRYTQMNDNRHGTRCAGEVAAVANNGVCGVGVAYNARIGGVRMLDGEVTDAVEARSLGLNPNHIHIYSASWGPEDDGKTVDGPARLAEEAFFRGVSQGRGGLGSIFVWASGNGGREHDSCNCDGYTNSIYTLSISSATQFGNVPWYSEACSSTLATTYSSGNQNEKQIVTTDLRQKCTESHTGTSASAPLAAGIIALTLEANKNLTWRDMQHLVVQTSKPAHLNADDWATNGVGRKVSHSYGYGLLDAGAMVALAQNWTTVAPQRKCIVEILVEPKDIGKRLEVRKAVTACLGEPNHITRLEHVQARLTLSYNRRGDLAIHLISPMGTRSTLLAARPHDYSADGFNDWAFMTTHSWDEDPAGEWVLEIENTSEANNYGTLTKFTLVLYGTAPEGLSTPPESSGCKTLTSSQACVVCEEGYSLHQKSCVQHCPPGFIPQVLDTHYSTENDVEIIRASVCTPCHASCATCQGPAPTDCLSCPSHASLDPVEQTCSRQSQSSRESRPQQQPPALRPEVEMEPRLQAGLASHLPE

Usually Ki stands for the equilibrium dissociation constant of an inhibitor or competing ligand from its target. On to `CC(=O)N[C@@H](CC(C)C)C(=O)N[C@@H](CC(C)C)C(=O)N[C@@H](CCCNC(=N)N)C(=O)N[C@H](C(=O)N[C@@H](CCCCN)C(=O)N[C@@H](CCCNC(=N)N)C(N)=O)C(C)C` [Ac-LLRVKR-NH2], for which the figures for the Ki at PC2 and on recombinant mouse furin were 1 ± 0.08 µM and 3.4 ± 0.1 µM, respectively. Besides, at PC1 [1], the “Ki / inhibition of PC1, in words” value is “nanomolar inhibitor”.
As for `N=C(N)NCCC[C@H](NC(=O)[C@H](CCCNC(=N)N)NC(=O)[C@H](CCCNC(=N)N)NC(=O)[C@H](CCCNC(=N)N)NC(=O)[C@H](CCCNC(=N)N)NC(=O)[C@H](CCCNC(=N)N)NC(=O)[C@H](CCCNC(=N)N)NC(=O)[C@@H](N)CCCNC(=N)N)C(=O)O` [Octa-L-arginine], the Ki on PC1 [2] worked out at 5.1 ± 2 µM; on PACE4, 0.15 ± 0.06 µM.
`N=C(N)NCCC[C@H](NC(=O)[C@H](CCCNC(=N)N)NC(=O)[C@H](CCCNC(=N)N)NC(=O)[C@@H](N)CCCNC(=N)N)C(=O)O` [Tetra-L-arginine] (H-RRRR-OH): the Ki at PC1 [2] and on PACE4 was more than 200 µM throughout. Also, at PC1 [2] (μM concentrations), the “inhibition of PC1” value is given as “not inhibited”. Besides, on PACE4 (mM concentrations), the “inhibition of PACE4” value is listed as “not found to inhibit even at mM concentrations”.
As for “Ac-YEKERSKR-CH2Cl (SMILES CC(=O)N[C@@H](Cc1ccc(O)cc1)C(=O)N[C@@H](CCC(=O)O)C(=O)N[C@@H](CCCCN)C(=O)N[C@@H](CCC(=O)O)C(=O)N[C@@H](CCCNC(=N)N)C(=O)N[C@@H](CO)C(=O)N[C@@H](CCCCN)C(=O)N[C@@H](CCCNC(=N)N)C(=O)CCl) [reference compound]”, in the experiment with PC1 [1], the “Ki / inhibition of PC1, in words” value is listed as “low nM”. In the experiment with furin, the “Ki against furin, in words” value is reported as “low nM”.
H-RRRRR-OH [Penta-L-arginine]: the values for the Ki at PC1 [2] and at PACE4 were 14 ± 6.1 µM and 0.98 ± 0.12 µM, respectively.
Take decanoyl-RVKR-CH2-AVG-NH2: the Ki at furin (read-out: Ki against furin) is 0.0034 µM.
For the compound “α1-PDX: α1-antitrypsin variant with reactive site loop bioengineered to contain a minimal furin consensus sequence [reference compound]”, the inhibition of furin result is on record as “strongly inhibited” with recombinant mouse furin (nanomolar α1-PDX concentrations, validation of enzyme preparation) and “sub-nanomolar range” in the experiment with furin.
